Measurements as given in PubChem BioAssay (NCI).
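Following 48 hours of exposure in 96-well plates, responses at five concentrations were used to interpolate endpoints linearly. At the GI50, growth is halved. Definition used: TGI = concentration required for complete inhibition of growth.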

Columns and labels:
Experiment in all cases: inhibition of tumour cell growth, NCI panel, 48 h
HOP-62 NSCLC = test system: HOP-62 NSCLC
786-0 renal = test system: 786-0 renal
HCC-2998 colon = test system: HCC-2998 colon
ACHN renal = test system: ACHN renal
MDA-MB-435 = test system: MDA-MB-435
SK-MEL-5 melanoma = test system: SK-MEL-5 melanoma
MCF7 breast = test system: MCF7 breast
HS 578T breast = test system: HS 578T breast
MDA-N = test system: MDA-N
SF-539 CNS = test system: SF-539 CNS
DMS 273 small cell lung = test system: DMS 273 small cell lung
LXFL 529 NSCLC = test system: LXFL 529 NSCLC

| SMILES | TGI (HOP-62 NSCLC) [µM] | TGI (786-0 renal) [µM] | TGI (HCC-2998 colon) [µM] | TGI (ACHN renal) [µM] | TGI (MDA-MB-435) [µM] | TGI (SK-MEL-5 melanoma) [µM] | TGI (MCF7 breast) [µM] | TGI (HS 578T breast) [µM] | TGI (MDA-N) [µM] | TGI (SF-539 CNS) [µM] | TGI (DMS 273 small cell lung) [µM] | TGI (LXFL 529 NSCLC) [µM] | GI50 (HOP-62 NSCLC) [µM] | GI50 (HCC-2998 colon) [µM] | GI50 (ACHN renal) [µM] | GI50 (MDA-MB-435) [µM] | GI50 (SK-MEL-5 melanoma) [µM] | GI50 (MCF7 breast) [µM] | GI50 (HS 578T breast) [µM] | GI50 (SF-539 CNS) [µM] |
| --- | --- | --- | --- | --- | --- | --- | --- | --- | --- | --- | --- | --- | --- | --- | --- | --- | --- | --- | --- | --- |
| CC(C)c1cc(CN(C)C)c(O)c(C(C)(C)C)c1 | 62.9 | 32.5 | 29.6 | 32.3 | > 100 | 29.9 | 30.1 | > 100 | 73.3 | – | – | – | – | – | – | – | – | – | – | – |
| C=CC[N+]12CN3CN(CN(C3)C1)C2 | > 100 | – | 55.8 | 46 | 37.4 | > 100 | > 100 | > 100 | 35.5 | 40.6 | – | – | – | – | – | – | – | – | – | – |
| COc1ccc(C[C@H](N)C(=O)NC2C(CO)OC(n3cnc4c(N(C)C)ncnc43)C2O)cc1 (stereo partly drawn) | 2.07 | – | 1.01 | – | – | 0.847 | – | – | – | – | 1.51 | 0.305 | – | – | – | – | – | – | – | – |
| O=C1c2ccccc2C(=O)c2c(Nc3ccc4c5c(cccc35)C(=O)c3ccccc3-4)cccc21 | > 100 | > 100 | > 100 | > 100 | > 100 | > 100 | – | > 100 | > 100 | – | – | – | – | – | – | – | – | – | – | – |
| CC(C)(C)N1C(C(=O)c2ccccc2)C1c1ccccc1 (stereo not drawn) | > 100 | – | > 100 | – | – | > 100 | – | – | – | > 100 | > 100 | > 100 | – | – | – | – | – | – | – | – |
| O=c1ccc2nc(-c3ccccc3)nn(-c3ccccn3)c-2c1 | 82.9 | – | 44.5 | 3.17 | 33.9 | 33.6 | 5.88 | 98.8 | – | 30.8 | – | – | 21.8 | 20.9 | 1.7 | 15.4 | 13.9 | 2.13 | 23.4 | 16.2 |
| N#CN=C(N)NC(=O)/C=C/C=C/c1ccc(Cl)cc1 | > 100 | > 100 | – | > 100 | – | > 100 | – | – | – | 50.4 | > 100 | > 100 | – | – | – | – | – | – | – | – |
| Nc1nc(N)c2c(n1)NC(=O)c1c(c3ccccc3n1Cc1ccc(Cl)cc1)C2 | 57.5 | – | 34.4 | – | 91.1 | 28.6 | 88.5 | > 100 | 34.5 | 44.8 | – | – | – | – | – | – | – | – | – | – |
